Patent US12263153B2, “Pharmaceutical composition, methods for treating and uses thereof” (Boehringer Ingelheim International GmbH, priority 2016, dated 2025)

How the values were obtained:
[1] = blood pressure, heart rate and sympathetic activation under empagliflozin treatment; assay type: in vivo; conditions: treatment with empagliflozin
Text: It may be assumed that altered glucose and sodium gradients within the kidney may generate a sympathoinhibitory afferent renal nerve signal. The lack of sympathetic activation may contribute to a beneficial cardiovascular and renal profile of empagliflozin (cardiorenal axis). Based on clinical and non-clinical studies including mechanistic considerations, such as the effect of empagliflozin on human autonomic cardiovascular regulation, the use of empagliflozin in the treatment, prevention or slowing the progression of certain diseases and conditions or reducing the risk thereof, in particular chronic kidney disease and cardiovascular death in certain patients, is described hereinbefore and hereinafter.

[2] = patients with type 2 diabetes mellitus and high cardiovascular risk; cited from earlier work
[3] = human, in vivo; cited from earlier work

OC[C@H]1O[C@@H](c2ccc(Cl)c(Cc3ccc(O[C@H]4CCOC4)cc3)c2)[C@H](O)[C@@H](O)[C@@H]1O [empagliflozin, 1-chloro-4-(β-D-glucopyranos-1-yl)-2-[4-((S)-tetrahydrofuran-3-yloxy)-benzyl]-benzene]
heart rate [1]: without clinically relevant changes | risk of cardiovascular death [2]: reduced the risk | risk of overall mortality [2]: reduced the risk | arterial stiffness [3]: reduced arterial stiffness | direct vascular effects [3]: direct vascular effects | diuretic effect [3]: shows a diuretic effect
